Measurements as given in ChEMBL document CHEMBL1140500, “Arene cis-dihydrodiols: useful precursors for the preparation of analogues of the anti-tumour agent, 2-crotonyloxymethyl-(4R,5R,6R)-4,5,6-trihydroxycyclohex-2-enone (COTC)” (Bioorg Med Chem Lett, 2007).

Assays:
A549 = assay: Cytotoxicity against human A549 cells assessed as surviving cells after 4 days by MTT assay; format: cell-based
NCI-H460 = assay: Cytotoxicity against human H460 cells assessed as surviving cells after 4 days by MTT assay; format: cell-based

Compound | IC50 (A549; a549) [µM] | IC50 (NCI-H460; nci-h460) [µM] | IC50 (A549; Homo sapiens, A549, 96 h) [µM] | IC50 (NCI-H460; Homo sapiens, NCI-H460, 96 h) [µM]
C/C=C/C(=O)OCC1=CC(O)C(O)C(O)C1=O (racemic) | 184 | 160 | – | –
C/C=C/C(=O)OCC1=CC(O)C2OC(C)(OC)C(C)(OC)OC2C1=O (racemic) | 30 | 18 | – | –
C/C=C/C(=O)OCC1=CC(O)C2OC(C)(OC)C(C)(OC)OC2C1=O (single isomer, unassigned; (+)) | – | – | 60 | 36
C/C=C/C(=O)OCC1=CC(O)C(O)C(O)C1=O (single isomer, unassigned; (-)) | – | – | 170 | 158
